Data on three molecules can be found in publication PMC11472313, “Development of Fragment-Based Inhibitors of the Bacterial Deacetylase LpxC with Low Nanomolar Activity” (Journal of Medicinal Chemistry, 2024).

Series [1] in a line: microsomal metabolic stability, mouse. The format is in vitro ADME. The settings on record: for microsomal CLint: mouse liver microsomes; for half-life: mouse, liver microsomes, read-out: microsomal metabolic stability t1/2. How it is done:
Also, the plasma stability of the compounds in mouse plasma was generally low with half-lives between 22.9 min [(S)-13h] and 43.1 min [(S)-13j].
The microsomal metabolic stability assay as well as the plasma protein binding assay were conducted as described previously.[78]
Samples were analyzed using an Agilent 1290 Infinity II HPLC system coupled to an AB Sciex QTrap 6500plus mass spectrometer. LC conditions were as follows: column: Agilent Zorbax Eclipse Plus C18, 50 × 2.1 mm, 1.8 μm; temperature: 30 °C; injection volume: 5 μL per sample; flow rate: 700 μL min^–1. Samples were run under acidic conditions. Solvents: (A) water + 0.1% formic acid; (B) 95% acetonitrile/5% H2O + 0.1% formic acid. Gradient elution: (A %): 0–0.1 min: 99%, 0.1–3.5 min: gradient from 99 to 50%, 3.5–3.8 min: gradient from 50 to 0%, 3.8–4.7 min: gradient from 0 to 99%. Mass transitions for controls and compounds are depicted in Table S3.

In a further series the target is T1, MMP3 (Homo sapiens, UniProt P08254).
T1 construct: purchased AnaSpec (Fremont, CA, USA)
Put plainly: MMP3 inhibition (SensoLyte 520 Generic MMP Activity Kit). Format: biochemical. The settings on record: read-out: MMP3 (% inhibition at 100 μM). How it is done:
Since LpxC and LasB are zinc-dependent enzymes, we investigated potential off-target activity of the three frontrunners on mammalian zinc-dependent enzymes. Our panel comprised three representative matrix-metalloproteases (MMP1–3) and tumor necrosis factor-α converting enzyme (TACE, also known as ADAM17) (Table 6).
Purification of LasB from P. aeruginosa PA14 supernatant and the subsequent performance of the FRET-based in vitro inhibition assay was performed as described previously.[66] The TACE (ADAM-17) inhibitor screening kit was purchased from Sigma-Aldrich (Saint Louis, MO). MMPs 1–3 along with the SensoLyte 520 Generic MMP Activity Kit Fluorimetric were purchased from AnaSpec (Fremont, CA, USA). The assays were performed according to the guidelines of the respective manufacturer. Fluorescence signals were measured using a CLARIOstar plate reader (BMG Labtech, Ortenberg, Germany).

A short description of series [2]: MTT-based cytotoxicity assay. Format: cell-based. To be noted: human, HepG2 cells. The text has this: An MTT-based assay was employed to evaluate the viability of HepG2 cells after challenge with selected inhibitors and performed as described previously.[77]
(In general: Formazan colour is commonly taken as a measure of viable cells.)

Some results are limits rather than exact numbers.

By microsomal CLint is commonly meant a measure of how fast metabolising enzymes remove a compound, apart from limits set by blood flow. Lower therefore signals greater metabolic stability. In general, inhibition refers to the drop in the measured response relative to a control, in per cent. A word on the IC50: it is the concentration that inhibits the measured activity by half. Low values mean greater potency, high ones weaker potency.

T1 sequence (P08254 100-477, species assumed): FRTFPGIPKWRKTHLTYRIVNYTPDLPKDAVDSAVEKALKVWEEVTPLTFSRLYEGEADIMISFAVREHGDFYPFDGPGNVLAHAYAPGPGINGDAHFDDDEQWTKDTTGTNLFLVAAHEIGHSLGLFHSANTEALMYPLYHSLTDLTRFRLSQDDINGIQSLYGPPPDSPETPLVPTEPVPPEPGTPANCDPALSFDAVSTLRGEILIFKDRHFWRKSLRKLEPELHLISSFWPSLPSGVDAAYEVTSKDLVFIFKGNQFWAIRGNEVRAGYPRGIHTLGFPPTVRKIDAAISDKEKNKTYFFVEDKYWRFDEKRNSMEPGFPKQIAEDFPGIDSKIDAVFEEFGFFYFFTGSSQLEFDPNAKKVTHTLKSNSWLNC

For the molecule `O=C(NC[C@H](OCc1ccc(C#Cc2ccc(CN3CCOCC3)cc2)cc1)C(=O)NO)c1c[nH]c2ccccc12` [(S)-13h], in series [1], the microsomal CLint is less than 23 µL/min/mg and the half-life was greater than 60 min. Moreover, the inhibition at 100 µM at MMP3 was less than 10%. Inhibition in series [2] was half-maximal at 15.1 ± 1.7 µM (IC50).
Taken in the same sequence, the figures for `O=C(NC[C@H](OCc1ccc(C#Cc2ccc(CN3CCOCC3)cc2)cc1)C(=O)NO)c1ccc2[nH]ccc2c1` [(S)-13j] were less than 23 µL/min/mg, greater than 60 min, 16 ± 1% and 8.1 ± 1.4 µM.
On the same counts, the results for `O=C(NC[C@H](OCc1ccc(C#Cc2ccc(CN3CCOCC3)cc2)cc1)C(=O)NO)c1cc[nH]n1` [(S)-13l] are 26 µL/min/mg, roughly 53 min, 19 ± 2% and 30.2 ± 1.9 µM.
